Results published in patent US10266544B2, “Aryl substituted aminomethyl spectinomycin analogs as antibacterial agents” (ST. JUDE CHILDREN'S RESEARCH HOSPITAL, INC., priority 2013, dated 2019).
≈ marks a conversion by molar mass, not a printed value. Where a name gives a salt, the structure may show the parent alone. Read-outs that look alike come from different tables or passages of the source.

Assays:
Type in all cases: cell-based
[1] = test system: M. tuberculosis clinical isolates; experiment: microbe, parasite or virus in culture; conditions: Mycobacterium tuberculosis
[2] = test system: Neisseria meningitides (ATCC 13077); experiment: Disc diffusion assay; conditions: ATCC13077, 4 μg per disc, read-out: Zone of inhibition N.m.
[3] = test system: Moraxella catarrhalis; experiment: MIC determination (Table 6)
[4] = test system: Burkholderia cepacia (ATCC 25416); experiment: MIC determination, microbroth dilution; conditions: Burkholderia cepacia
[5] = test system: Pseudomonas aeruginosa (PA01); experiment: MIC determination, microbroth dilution
[6] = test system: Proteus mirabilis (ATCC 25933); experiment: MIC determination, microbroth dilution; conditions: ATCC25933
[7] = test system: Escherichia coli (ATCC 700926); experiment: MIC determination, microbroth dilution
[8] = test system: Klebsiella pneumoniae (ATCC 33495); experiment: MIC determination, microbroth dilution; conditions: ATCC33495
[9] = test system: Bacillus anthracis, Sterne 34F2; experiment: microbe, parasite or virus in culture; conditions: STERNE34F2, read-out: MIC B.a.
[10] = test system: Stenotrophomonas maltophilia (ATCC 13637); experiment: MIC determination, microbroth dilution
[11] = test system: Legionella pneumophila (ATCC 33153); experiment: microbe, parasite or virus in culture; conditions: ATCC33153, 72 h, read-out: Zone of inhibition L.p.
[12] = test system: Streptococcus pyogenes (ATCC 700294); experiment: MIC determination, microbroth dilution
[13] = test system: Listeria monocytogenes; experiment: MIC determination (Table 6)
[14] = test system: Streptococcus pneumoniae (R6); experiment: MIC determination, microbroth dilution; conditions: read-out: MIC S. pn.
[15] = test system: E. coli K12 ΔtolC; experiment: microbe, parasite or virus in culture; conditions: Escherichia coli, read-out: MIC E.c. Δtolc
[16] = test system: Neisseria gonorrhoeae (ATCC 49226); experiment: Disc diffusion assay; conditions: ATCC49226, 4 μg per disc, read-out: Zone of inhibition N.g.
[17] = test system: acinetobacter baumannii (ATCC 19606); experiment: MIC determination, microbroth dilution; conditions: ATCC19606
[18] = test system: Haemophilus influenza (ATCC 49247); experiment: microbe, parasite or virus in culture; conditions: ATCC49247; Haemophilus influenza; 4 μg per disc; range of at least two experiments; read-out: Zone of inhibition H.i.
[19] = test system: Bacillus subtilis (ATCC 23857); experiment: MIC determination, microbroth dilution
[20] = test system: Proteus vulgaris (ATCC 33420); experiment: MIC determination, microbroth dilution; conditions: ATCC33420
[21] = test system: Staphylococcus aureus (ATCC 29213); experiment: MIC determination, microbroth dilution; conditions: ATCC29213; Staphylococcus aureus (ATCC 29213); read-out: MIC S.a.
[22] = test system: MRSA, Staphylococcus aureus (NRS70); experiment: MIC determination, microbroth dilution; conditions: read-out: MIC MRSA
[23] = test system: Bacillus anthracis; experiment: microbe, parasite or virus in culture; conditions: read-out: MIC B.a.
[24] = ATCC25416, read-out: MIC B.c., Burkholderia cepacia (ATCC 25416)
[25] = ATCC25416, read-out: MIC B.c., Burkholderia cepacia, Table 6
[26] = ATCC700926, Escherichia coli (ATCC 700926), read-out: MIC E.c.
[27] = Streptococcus pyogenes, ATCC700294, read-out: MIC S. py.
[28] = Bacillus subtilis, ATCC23857, read-out: MIC B.s.
[29] = ATCC13637, Stenotrophomonas maltophilia (ATCC 13637), read-out: MIC S.m.
[30] = ATCC23857, Bacillus subtilis (ATCC 23857), read-out: MIC B.s.
[31] = ATCC700294, Streptococcus pyogenes (ATCC 700294), read-out: MIC S. py.

| Compound | MIC ([1]; H37RV, read-out: MIC H37Rv) | MIC ([1]; read-out: MIC TN022) | MIC ([1]; read-out: MIC TN026) | zone of inhibition at 4 µg/disc [2] | MIC [3] | MIC [4, 24] | MIC [4, 25] | MIC [5] | MIC [6] | MIC [8] | MIC [9] | zone of inhibition at 4 µg/disc [11] | MIC [13] | MIC [15] | zone of inhibition at 4 µg/disc [16] | MIC [17] | zone of inhibition at 4 µg/disc [18] | MIC [20] | MIC [21] | MIC [23] | other results |
| --- | --- | --- | --- | --- | --- | --- | --- | --- | --- | --- | --- | --- | --- | --- | --- | --- | --- | --- | --- | --- | --- |
| CN[C@@H]1[C@H](O)[C@H](NC)[C@H]2O[C@]3(O)[C@H](O[C@@H]2[C@H]1O)O[C@H](C)C[C@@]3(O)CNCC(C)c1ccccc1 (stereo partly shown) [compound 65] | 50 µg/mL (≈ 104 µM) | 100 µg/mL (≈ 208 µM) | 100 µg/mL (≈ 208 µM) | 13 mm | 3.1 µg/mL (≈ 6.44 µM) | ≥ 200 µg/mL | ≥ 200 µg/mL | > 200 µg/mL | > 200 µg/mL | > 200 µg/mL | 12.5 µg/mL (≈ 26 µM) | 22 mm | 12.5 µg/mL (≈ 26 µM) | 6.3 to 12.5 µg/mL (≈ 13.1 to 26 µM) | 12 mm | > 200 µg/mL | 10 mm | > 200 µg/mL | 25 µg/mL (≈ 51.9 µM) | 12.5 µg/mL (≈ 26 µM) | MIC [7, 26]: 50 µg/mL (≈ 104 µM); MIC ([10]; Stenotrophomonas maltophilia, ATCC13637, read-out: MIC S.m.): 12.5 µg/mL (≈ 26 µM); MIC [12, 27]: 12.5 µg/mL (≈ 26 µM); MIC ([14]; Streptococcus pneumoniae): 12.5 µg/mL (≈ 26 µM); MIC [19, 28]: 12.5 µg/mL (≈ 26 µM); MIC ([22]; Staphylococcus aureus): 12.5 to 25 µg/mL (≈ 26 to 51.9 µM) |
| CN[C@@H]1[C@H](O)[C@H](NC)[C@H]2O[C@]3(O)[C@H](O[C@@H]2[C@H]1O)O[C@H](C)C[C@@]3(O)CNCCc1ccc(C)c(C)c1 [compound 55, 3′-(R)-3′-[(3,4-dimethyl)phenethylaminomethyl]dihydrospectinomycin Trihydrochloride] | 25 µg/mL | 50 µg/mL | 50 µg/mL | 8 mm | 3.1 µg/mL | > 200 µg/mL | > 200 µg/mL | > 200 µg/mL | > 200 µg/mL | > 200 µg/mL | 100 µg/mL | 15 mm | 25 µg/mL | 12.5 to 25 µg/mL | 11 mm | > 200 µg/mL | 9 mm | > 200 µg/mL | 100 µg/mL | 100 µg/mL | MIC [7, 26]: 100 to 200 µg/mL; MIC [10, 29]: 50 µg/mL; MIC [12, 27]: 12.5 to 25 µg/mL; MIC ([14]; Streptococcus pneumoniae (R6)): 12.5 µg/mL; MIC [19, 30]: 50 µg/mL; MIC ([22]; Staphylococcus aureus (NRS70)): > 200 µg/mL |
| CN[C@@H]1[C@H](O)[C@H](NC)[C@H]2O[C@]3(O)[C@H](O[C@@H]2[C@H]1O)O[C@H](C)C[C@@]3(O)CNCCC1CCOCC1 [compound 52, 3′-(R)-3′-[(2-(tetrahydro-2H-pyran-4-yl)ethyl)aminomethyl]dihydrospectinomycin Trihydrochloride] | 3.1 µg/mL | 6.3 µg/mL | 3.1 µg/mL | 12 mm | 3.1 µg/mL | > 200 µg/mL | > 200 µg/mL | > 200 µg/mL | 200 µg/mL | 100 µg/mL | 50 to 100 µg/mL | 32 mm | 12.5 µg/mL | 25 to 50 µg/mL | 7 mm | > 200 µg/mL | 10 mm | > 200 µg/mL | 200 µg/mL | 50 to 100 µg/mL | MIC [7, 26]: 50 to 100 µg/mL; MIC [10, 29]: 12.5 to 25 µg/mL; MIC [12, 31]: 100 µg/mL; MIC ([14]; Streptococcus pneumoniae (R6)): 25 to 50 µg/mL; MIC [19, 30]: 25 µg/mL; MIC ([22]; Staphylococcus aureus (NRS70)): > 200 µg/mL |
| CN[C@@H]1[C@H](O)[C@H](NC)[C@H]2O[C@]3(O)[C@H](O[C@@H]2[C@H]1O)O[C@H](C)C[C@@]3(O)CNCCc1ccc(OC(F)(F)F)cc1 [compound 57, 3′-(R)-3′-[(4-trifluoromethoxy)phenethylaminomethyl]dihydrospectinomycin Trihydrochloride] | 12.5 µg/mL | 6.3 µg/mL | 25 µg/mL | 15 mm | 0.8 µg/mL | ≥ 200 µg/mL | ≥ 200 µg/mL | > 200 µg/mL | 200 µg/mL | > 200 µg/mL | 25 µg/mL | 22 mm | 6.3 µg/mL | 1.3 to 3.1 µg/mL | 14 mm | ≥ 200 µg/mL | 12 mm | 200 µg/mL | 25 µg/mL | 25 µg/mL | MIC ([7]; Escherichia coli, ATCC700926, read-out: MIC E.c.): 25 µg/mL; MIC [10, 29]: 50 to 100 µg/mL; MIC [12, 31]: 3.1 to 6.3 µg/mL; MIC ([14]; Streptococcus pneumoniae (R6)): 3.1 µg/mL; MIC [19, 28]: 12.5 µg/mL; MIC ([22]; Staphylococcus aureus (NRS70)): 50 to 100 µg/mL |
| CN[C@@H]1[C@H](O)[C@H](NC)[C@H]2O[C@]3(O)[C@H](O[C@@H]2[C@H]1O)O[C@H](C)C[C@@]3(O)CNCCc1ccc[nH]1 [compound 62, 3′-(R)-3′-[((2-(1H-pyrrol-2-yl)ethyl)aminomethyl]dihydrospectinomycintetrahydrobromide] | 50 µg/mL | 25 µg/mL | 100 µg/mL | 0 mm | 12.5 µg/mL | > 200 µg/mL | > 200 µg/mL | > 200 µg/mL | 200 µg/mL | 100 to 200 µg/mL | 25 µg/mL | 12 mm | 25 µg/mL | 12.5 µg/mL | 0 mm | > 200 µg/mL | 0 mm | 50 to 100 µg/mL | 25 µg/mL | 25 µg/mL | MIC [7, 26]: 50 µg/mL; MIC [10, 29]: 6.3 µg/mL; MIC [12, 31]: 200 µg/mL; MIC ([14]; Streptococcus pneumoniae (R6)): 100 µg/mL; MIC [19, 30]: 6.3 µg/mL; MIC ([22]; Staphylococcus aureus): 12.5 to 25 µg/mL |
